Several values for one entry are separate records, joined by “and”; a condition that tells them apart may be missing. Equal values may be shown once. Inconclusive results and toxic doses are left out.
System: L1210 leukemia ip in BDF1 mice, survival T/C
Test: NCI In Vivo Anticancer Drug Screen. Data for tumor model L1210 Leukemia (intraperitoneal) in B6D2F1 (BDF1) mice
Details: endpoint: mean survival time, higher = longer survival
Summary of the method: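 Value reflects the ratio of survival in compound-treated mice to survival in vehicle-treated controls, with both groups carrying the same transplanted tumor.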

[1] = dose: 100.0 mg/kg/injection, schedule: Q04DX002 (ip), vehicle: Klucel (hydroxypropylcellulose) (HPC)
[2] = dose: 200.0 mg/kg/injection, schedule: Q04DX002 (ip), vehicle: Klucel (hydroxypropylcellulose) (HPC)
[3] = dose: 100.0 mg/kg/injection, schedule: Q01DX001 (ip), vehicle: saline
[4] = dose: 200.0 mg/kg/injection, schedule: Q01DX001 (ip), vehicle: saline
[5] = dose: 400.0 mg/kg/injection, schedule: Q01DX001 (ip), vehicle: saline
[6] = dose: 100.0 mg/kg/injection, schedule: Q04DX003 (ip), vehicle: saline
[7] = dose: 200.0 mg/kg/injection, schedule: Q04DX003 (ip), vehicle: saline
[8] = dose: 400.0 mg/kg/injection, schedule: Q04DX003 (ip), vehicle: saline
[9] = dose: 100.0 mg/kg/injection, schedule: Q04DX003 (ip), vehicle: saline with Tween-80
[10] = dose: 200.0 mg/kg/injection, schedule: Q04DX003 (ip), vehicle: saline with Tween-80
[11] = dose: 400.0 mg/kg/injection, schedule: Q04DX003 (ip), vehicle: saline with Tween-80
[12] = dose: 100.0 mg/kg/injection, schedule: Q01DX001 (ip), vehicle: Klucel (hydroxypropylcellulose) (HPC)
[13] = dose: 100.0 mg/kg/injection, schedule: Q01DX009 (ip), vehicle: Klucel (hydroxypropylcellulose) (HPC)
[14] = dose: 100.0 mg/kg/injection, schedule: Q04DX003 (ip), vehicle: Klucel (hydroxypropylcellulose) (HPC)
[15] = dose: 200.0 mg/kg/injection, schedule: Q01DX009 (ip), vehicle: Klucel (hydroxypropylcellulose) (HPC)
[16] = dose: 200.0 mg/kg/injection, schedule: Q04DX003 (ip), vehicle: Klucel (hydroxypropylcellulose) (HPC)
[17] = dose: 400.0 mg/kg/injection, schedule: Q01DX009 (ip), vehicle: Klucel (hydroxypropylcellulose) (HPC)
[18] = dose: 400.0 mg/kg/injection, schedule: Q04DX003 (ip), vehicle: Klucel (hydroxypropylcellulose) (HPC)
[19] = dose: 12.5 mg/kg/injection, schedule: Q01DX009 (ip), vehicle: saline with Tween-80
[20] = dose: 25.0 mg/kg/injection, schedule: Q01DX009 (ip), vehicle: saline with Tween-80
[21] = dose: 25.0 mg/kg/injection, schedule: Q04DX003 (ip), vehicle: saline with Tween-80
[22] = dose: 25.0 mg/kg/injection, schedule: Q04DX003 (ip), vehicle: saline
[23] = dose: 50.0 mg/kg/injection, schedule: Q04DX003 (ip), vehicle: saline

Compound: CCc1cc2oc(C)c(C)c2c(N=Nc2cccc([N+](=O)[O-])c2)c1O
- T/C [1]: 96 % of control
- T/C [2]: 96 % of control
- T/C (dose: 400.0 mg/kg/injection, schedule: Q04DX002 (ip), vehicle: Klucel (hydroxypropylcellulose) (HPC)): 93 % of control

Compound: O=c1c(Br)c(Cl)nc2ccccn12
- T/C [3]: 95 % of control
- T/C [4]: 96 % of control
- T/C [5]: 93 % of control

Compound: CC(=O)NC(NNC(NC(C)=O)(c1ccccc1)c1ccccc1)(c1ccccc1)c1ccccc1
- T/C [6]: 105 % of control
- T/C [7]: 102 % of control
- T/C [8]: 92 % of control

Compound: CC(C)=CC/C(C)=C/C=N\Nc1ccc([N+](=O)[O-])cc1[N+](=O)[O-]
- T/C [9]: 98 % of control
- T/C [10]: 95 % of control
- T/C [11]: 93 % of control

Compound: O=C1CCCCCCCCCC/C1=N/O
- T/C [12]: 111 % of control
- T/C (dose: 200.0 mg/kg/injection, schedule: Q01DX001 (ip), vehicle: Klucel (hydroxypropylcellulose) (HPC)): 101 % of control
- T/C (dose: 400.0 mg/kg/injection, schedule: Q01DX001 (ip), vehicle: Klucel (hydroxypropylcellulose) (HPC)): 92 % of control

Compound: COC1OC(COC(c2ccccc2)(c2ccccc2)c2ccccc2)C(OC)C(OC)C1OC (stereo unspecified)
- T/C [9]: 93 % of control
- T/C [10]: 94 % of control
- T/C [11]: 88 % of control

Compound: O=C(NCc1ccco1)Nc1ccccc1Cl
- T/C (dose: 155.0 mg/kg/injection, schedule: Q01DX Z (ip), vehicle: methylcellulose (MC)): 100 % of control
- T/C (dose: 233.0 mg/kg/injection, schedule: Q01DX Z (ip), vehicle: methylcellulose (MC)): 100 % of control
- T/C (dose: 350.0 mg/kg/injection, schedule: Q01DX Z (ip), vehicle: methylcellulose (MC)): 94 % of control

Compound: CCOC(=O)c1[nH]c2ccsc2c1C[N+]1(C)CCCCC1
- T/C (dose: 12.5 mg/kg/injection, schedule: Q01DX001 (ip), vehicle: saline with Tween-80): 105 % of control
- T/C (dose: 25.0 mg/kg/injection, schedule: Q01DX001 (ip), vehicle: saline with Tween-80): 103 % of control

Compound: CCSc1nc2nccnc2c(=O)[nH]1
- T/C [13]: 98 % of control
- T/C [14]: 97 % of control
- T/C [15]: 102 % of control
- T/C [16]: 92 % of control
- T/C [17]: 102 % of control
- T/C [18]: 92 % of control

Compound: CN(C)CCOc1cccc(OCCN(C)C)n1
- T/C [19]: 104 % of control
- T/C [20]: 103 % of control
- T/C [21]: 96 % of control
- T/C (dose: 50.0 mg/kg/injection, schedule: Q01DX009 (ip), vehicle: saline with Tween-80): 103 % of control
- T/C (dose: 50.0 mg/kg/injection, schedule: Q04DX003 (ip), vehicle: saline with Tween-80): 96 % of control
- T/C [9]: 100 % of control

Compound: Cc1cccc(N2CCN(c3ccncc3N)CC2C)c1 (stereo unspecified)
- T/C (dose: 19.0 mg/kg/injection, schedule: Q01DX009 (ip), vehicle: saline with Tween-80): 102 % of control
- T/C (dose: 37.5 mg/kg/injection, schedule: Q04DX003 (ip), vehicle: saline with Tween-80): 94 % of control
- T/C (dose: 38.0 mg/kg/injection, schedule: Q01DX009 (ip), vehicle: saline with Tween-80): 91 % of control
- T/C (dose: 75.0 mg/kg/injection, schedule: Q01DX009 (ip), vehicle: saline with Tween-80): 89 % of control
- T/C (dose: 75.0 mg/kg/injection, schedule: Q04DX003 (ip), vehicle: saline with Tween-80): 94 % of control

Compound: N=c1ccn(O)cc1[N+](=O)[O-]
- T/C [3]: 108 % of control
- T/C [4]: 120 % of control
- T/C [5]: 114 % of control

Compound: CN1c2cccc[c]2[Sn]([CH3])([CH3])[c]2ccccc21
- T/C (dose: 100.0 mg/kg/injection, schedule: Q01DX001 (ip), vehicle: other): 92 % of control
- T/C (dose: 200.0 mg/kg/injection, schedule: Q01DX001 (ip), vehicle: other): 92 % of control
- T/C (dose: 400.0 mg/kg/injection, schedule: Q01DX001 (ip), vehicle: other): 108 % of control

Compound: CCCCCCC(=O)N1CCCC(C)C1 (stereo unspecified)
- T/C [1]: 98 % of control
- T/C [2]: 106 % of control

Compound: CSc1nnnc2ccccc12
- T/C (dose: 37.5 mg/kg/injection, schedule: Q04DX002 (ip), vehicle: saline with Tween-80): 113 % of control
- T/C (dose: 75.0 mg/kg/injection, schedule: Q04DX002 (ip), vehicle: saline with Tween-80): 92 % of control

Compound: c1ccc([Se]c2ccccn2)nc1
- T/C (dose: 12.5 mg/kg/injection, schedule: Q01DX009 (ip), vehicle: Klucel (hydroxypropylcellulose) (HPC)): 101 % of control
- T/C (dose: 12.5 mg/kg/injection, schedule: Q04DX003 (ip), vehicle: Klucel (hydroxypropylcellulose) (HPC)): 105 % of control
- T/C (dose: 25.0 mg/kg/injection, schedule: Q01DX001 (ip), vehicle: Klucel (hydroxypropylcellulose) (HPC)): 102 % of control
- T/C (dose: 25.0 mg/kg/injection, schedule: Q01DX009 (ip), vehicle: Klucel (hydroxypropylcellulose) (HPC)): 98 % of control
- T/C (dose: 25.0 mg/kg/injection, schedule: Q04DX003 (ip), vehicle: Klucel (hydroxypropylcellulose) (HPC)): 103 % of control
- T/C (dose: 50.0 mg/kg/injection, schedule: Q01DX001 (ip), vehicle: Klucel (hydroxypropylcellulose) (HPC)): 110 % of control
- T/C (dose: 50.0 mg/kg/injection, schedule: Q04DX003 (ip), vehicle: Klucel (hydroxypropylcellulose) (HPC)): 107 % of control and 110 % of control
- T/C [12]: 105 % of control

Compound: CC(O)(C(=O)c1ccccc1)c1ccc(Cl)cc1 (stereo unspecified)
- T/C [14]: 95 % of control
- T/C [16]: 98 % of control
- T/C [18]: 101 % of control

Compound: Cc1ccc(NC(=S)N(CCC#N)C(C)C)cc1C
- T/C [13]: 110 % of control
- T/C [15]: 106 % of control
- T/C [17]: 103 % of control

Compound: O=C(CN1CCCCC1)c1ccc2oc3ccccc3c2c1
- T/C [14]: 96 % of control
- T/C [16]: 96 % of control
- T/C [18]: 87 % of control

Compound: Nc1nc(N)c2c(no[n+]2[O-])n1
- T/C (dose: 75.0 mg/kg/injection, schedule: Q01DX001 (ip), vehicle: other): 98 % of control

Compound: CCOC(=O)C1=NN(c2ccccc2)C(=O)C1N=Nc1ccc(S(=O)(=O)Nc2nccc(C)n2)cc1 (stereo unspecified)
- T/C [3]: 95 % of control
- T/C [4]: 101 % of control
- T/C [5]: 102 % of control

Compound: Cc1cc2cc3ccc(Cl)nn3c2n[n+]1[O-]
- T/C (dose: 62.5 mg/kg/injection, schedule: Q04DX002 (ip), vehicle: Klucel (hydroxypropylcellulose) (HPC)): 100 % of control
- T/C (dose: 125.0 mg/kg/injection, schedule: Q04DX002 (ip), vehicle: Klucel (hydroxypropylcellulose) (HPC)): 122 % of control

Compound: CC(C)NC(=O)c1ccc(CNN(C)C)cc1
- T/C [22]: 114 % of control
- T/C [23]: 104 % of control
- T/C [6]: 112 % of control
- T/C [7]: 104 % of control
- T/C [8]: 111 % of control

Compound: Cc1ccc(C(=O)Nc2ncn(C3CC(O)C(CO)O3)c(=O)n2)cc1 (stereo unspecified)
- T/C (dose: 6.25 mg/kg/injection, schedule: Q04DX003 (ip), vehicle: saline with Tween-80): 114 % of control
- T/C (dose: 12.5 mg/kg/injection, schedule: Q01DX003 (ip), vehicle: saline with Tween-80): 245 % of control
- T/C (dose: 12.5 mg/kg/injection, schedule: Q01DX005 (ip), vehicle: saline): 187 % of control
- T/C (dose: 12.5 mg/kg/injection, schedule: Q04DX003 (ip), vehicle: saline with Tween-80): 172 % of control
- T/C (dose: 25.0 mg/kg/injection, schedule: Q01DX003 (ip), vehicle: saline with Tween-80): 152 % of control
- T/C [21]: 156 % of control and 185 % of control
- T/C (dose: 50.0 mg/kg/injection, schedule: Q01DX003 (ip), vehicle: saline with Tween-80): 111 % of control
- T/C (dose: 50.0 mg/kg/injection, schedule: Q01DX005 (ip), vehicle: saline): 90 % of control

Compound: CS(=O)(=O)ON1C(=O)c2ccccc2C1=O
- T/C (dose: 6.25 mg/kg/injection, schedule: Q01DX009 (ip), vehicle: saline with Tween-80): 94 % of control
- T/C [19]: 98 % of control
- T/C [20]: 94 % of control
- T/C [22]: 91 % of control
- T/C [23]: 93 % of control

Reference: PubChem BioAssay AID248 (DTP/NCI, 2004)
